Laboratory results published in ChEMBL document CHEMBL5291721, “A preclinical secondary pharmacology resource illuminates target-adverse drug reaction associations of marketed drugs” (Nat Commun, 2023).

Columns and labels:
[1] = target: T1, Adenosine receptor A3 (Homo sapiens, UniProt P0DMS8)
T1 sequence (P0DMS8 whole entry): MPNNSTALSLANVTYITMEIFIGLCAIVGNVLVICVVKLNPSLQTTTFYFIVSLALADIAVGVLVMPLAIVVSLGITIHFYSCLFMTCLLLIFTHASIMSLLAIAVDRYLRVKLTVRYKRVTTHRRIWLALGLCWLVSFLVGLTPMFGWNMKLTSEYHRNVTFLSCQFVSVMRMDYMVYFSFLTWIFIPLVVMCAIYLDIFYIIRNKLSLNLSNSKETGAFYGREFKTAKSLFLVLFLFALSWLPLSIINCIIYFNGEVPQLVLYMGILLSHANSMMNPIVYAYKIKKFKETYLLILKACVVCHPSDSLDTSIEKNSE

[2] = target: Gamma-aminobutyric acid receptor subunit alpha-1 (Rattus norvegicus, UniProt P62813)
Chain of Gamma-aminobutyric acid receptor subunit alpha-1 (P62813 whole entry): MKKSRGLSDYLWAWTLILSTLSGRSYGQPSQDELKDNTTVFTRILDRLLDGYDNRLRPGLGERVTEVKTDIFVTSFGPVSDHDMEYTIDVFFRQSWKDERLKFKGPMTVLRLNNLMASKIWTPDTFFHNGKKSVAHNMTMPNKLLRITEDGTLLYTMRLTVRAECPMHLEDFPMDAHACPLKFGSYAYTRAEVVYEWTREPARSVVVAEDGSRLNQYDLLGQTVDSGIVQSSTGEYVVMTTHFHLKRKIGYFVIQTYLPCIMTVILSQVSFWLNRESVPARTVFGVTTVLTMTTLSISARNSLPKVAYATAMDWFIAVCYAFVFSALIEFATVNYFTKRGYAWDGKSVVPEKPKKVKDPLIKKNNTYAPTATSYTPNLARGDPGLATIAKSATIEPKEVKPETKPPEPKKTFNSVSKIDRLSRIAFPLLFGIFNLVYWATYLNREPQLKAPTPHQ

[3] = target: Delta-type opioid receptor (Homo sapiens, UniProt P41143)
Chain of Delta-type opioid receptor (P41143 whole entry): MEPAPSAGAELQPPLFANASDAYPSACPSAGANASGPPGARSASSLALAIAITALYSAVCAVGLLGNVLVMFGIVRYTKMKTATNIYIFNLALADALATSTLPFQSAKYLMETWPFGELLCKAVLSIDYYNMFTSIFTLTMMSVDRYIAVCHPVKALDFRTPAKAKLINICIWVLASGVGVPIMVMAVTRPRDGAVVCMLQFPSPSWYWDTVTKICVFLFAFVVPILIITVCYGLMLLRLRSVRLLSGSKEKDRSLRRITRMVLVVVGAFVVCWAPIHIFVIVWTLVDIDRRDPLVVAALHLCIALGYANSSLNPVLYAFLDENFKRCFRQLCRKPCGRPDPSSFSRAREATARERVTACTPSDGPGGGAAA

[4] = target: Sodium-dependent dopamine transporter (Homo sapiens, UniProt Q01959)
Chain of Sodium-dependent dopamine transporter (Q01959 whole entry): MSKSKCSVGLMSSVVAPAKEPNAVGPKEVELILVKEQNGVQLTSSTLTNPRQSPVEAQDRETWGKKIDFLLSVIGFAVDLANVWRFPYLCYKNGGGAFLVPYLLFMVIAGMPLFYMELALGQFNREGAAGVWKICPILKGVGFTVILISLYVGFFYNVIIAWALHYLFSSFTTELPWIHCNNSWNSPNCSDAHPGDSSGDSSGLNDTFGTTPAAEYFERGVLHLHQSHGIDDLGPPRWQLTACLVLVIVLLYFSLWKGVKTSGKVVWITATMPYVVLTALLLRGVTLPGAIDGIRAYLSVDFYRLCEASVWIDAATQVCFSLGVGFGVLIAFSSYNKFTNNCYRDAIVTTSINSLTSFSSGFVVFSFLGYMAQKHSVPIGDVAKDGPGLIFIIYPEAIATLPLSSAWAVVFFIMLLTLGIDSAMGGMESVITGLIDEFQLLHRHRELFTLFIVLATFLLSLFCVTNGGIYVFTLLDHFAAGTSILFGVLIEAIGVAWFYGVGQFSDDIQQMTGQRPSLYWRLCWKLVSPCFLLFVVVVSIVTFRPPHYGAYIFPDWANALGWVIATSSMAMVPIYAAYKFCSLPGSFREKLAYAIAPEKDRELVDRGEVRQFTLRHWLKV

[5] = target: Glutamate receptor ionotropic, NMDA 1 (Rattus norvegicus, UniProt P35439)
[6] = target: T2, Thromboxane A2 receptor (Homo sapiens, UniProt P21731)
T2 sequence (P21731 whole entry): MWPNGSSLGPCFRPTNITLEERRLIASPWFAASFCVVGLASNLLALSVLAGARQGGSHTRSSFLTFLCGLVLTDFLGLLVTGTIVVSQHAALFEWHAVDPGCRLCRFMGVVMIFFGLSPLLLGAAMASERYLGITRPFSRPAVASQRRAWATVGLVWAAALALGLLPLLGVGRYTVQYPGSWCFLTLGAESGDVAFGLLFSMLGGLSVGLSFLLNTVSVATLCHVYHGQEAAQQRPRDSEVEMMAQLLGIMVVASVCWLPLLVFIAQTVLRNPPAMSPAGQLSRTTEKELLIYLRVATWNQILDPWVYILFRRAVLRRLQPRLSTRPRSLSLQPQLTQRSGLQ

[7] = target: T3, 5-hydroxytryptamine receptor 2C (Homo sapiens, UniProt P28335)
T3 sequence (P28335 whole entry): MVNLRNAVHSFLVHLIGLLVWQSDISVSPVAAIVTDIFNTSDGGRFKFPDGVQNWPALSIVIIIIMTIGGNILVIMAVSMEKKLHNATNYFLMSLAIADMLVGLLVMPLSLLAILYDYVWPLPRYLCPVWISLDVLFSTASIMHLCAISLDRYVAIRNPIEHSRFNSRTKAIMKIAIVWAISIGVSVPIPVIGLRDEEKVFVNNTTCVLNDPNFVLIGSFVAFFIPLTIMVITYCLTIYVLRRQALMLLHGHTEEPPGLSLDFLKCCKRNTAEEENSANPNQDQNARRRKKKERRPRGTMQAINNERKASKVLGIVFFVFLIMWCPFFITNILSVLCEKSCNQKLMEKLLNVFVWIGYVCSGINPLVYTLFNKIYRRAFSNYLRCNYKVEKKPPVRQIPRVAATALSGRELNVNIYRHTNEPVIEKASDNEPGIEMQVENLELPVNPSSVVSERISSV

[8] = target: T4, Progesterone receptor (Homo sapiens, UniProt P06401); format: functional
T4 sequence (P06401 whole entry): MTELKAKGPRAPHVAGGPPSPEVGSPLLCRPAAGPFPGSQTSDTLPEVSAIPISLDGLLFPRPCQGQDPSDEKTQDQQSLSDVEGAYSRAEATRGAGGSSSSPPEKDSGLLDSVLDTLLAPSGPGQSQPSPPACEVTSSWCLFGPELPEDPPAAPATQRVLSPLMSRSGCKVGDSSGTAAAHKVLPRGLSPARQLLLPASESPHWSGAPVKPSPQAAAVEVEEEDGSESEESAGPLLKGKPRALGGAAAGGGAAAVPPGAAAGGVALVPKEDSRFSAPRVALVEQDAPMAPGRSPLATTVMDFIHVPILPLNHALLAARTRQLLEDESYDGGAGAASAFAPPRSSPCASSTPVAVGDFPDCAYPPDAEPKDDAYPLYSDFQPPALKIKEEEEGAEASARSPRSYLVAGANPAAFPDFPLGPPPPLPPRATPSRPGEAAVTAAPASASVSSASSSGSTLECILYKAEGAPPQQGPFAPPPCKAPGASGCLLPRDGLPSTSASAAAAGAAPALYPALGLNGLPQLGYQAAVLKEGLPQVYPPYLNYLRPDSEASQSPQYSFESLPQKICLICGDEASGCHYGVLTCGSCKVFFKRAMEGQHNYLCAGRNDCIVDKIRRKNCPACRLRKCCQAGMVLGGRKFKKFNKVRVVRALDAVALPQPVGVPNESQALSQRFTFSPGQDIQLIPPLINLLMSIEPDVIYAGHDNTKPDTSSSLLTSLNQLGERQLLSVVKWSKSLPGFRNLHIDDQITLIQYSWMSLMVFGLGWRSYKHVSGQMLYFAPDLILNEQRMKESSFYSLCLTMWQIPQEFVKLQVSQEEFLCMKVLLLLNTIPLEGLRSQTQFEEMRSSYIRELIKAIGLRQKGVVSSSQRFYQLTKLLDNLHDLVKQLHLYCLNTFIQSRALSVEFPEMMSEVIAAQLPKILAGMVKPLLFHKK

[9] = target: D(1A) dopamine receptor (Homo sapiens, UniProt P21728); format: functional, cell-based
Chain of D(1A) dopamine receptor (P21728 whole entry): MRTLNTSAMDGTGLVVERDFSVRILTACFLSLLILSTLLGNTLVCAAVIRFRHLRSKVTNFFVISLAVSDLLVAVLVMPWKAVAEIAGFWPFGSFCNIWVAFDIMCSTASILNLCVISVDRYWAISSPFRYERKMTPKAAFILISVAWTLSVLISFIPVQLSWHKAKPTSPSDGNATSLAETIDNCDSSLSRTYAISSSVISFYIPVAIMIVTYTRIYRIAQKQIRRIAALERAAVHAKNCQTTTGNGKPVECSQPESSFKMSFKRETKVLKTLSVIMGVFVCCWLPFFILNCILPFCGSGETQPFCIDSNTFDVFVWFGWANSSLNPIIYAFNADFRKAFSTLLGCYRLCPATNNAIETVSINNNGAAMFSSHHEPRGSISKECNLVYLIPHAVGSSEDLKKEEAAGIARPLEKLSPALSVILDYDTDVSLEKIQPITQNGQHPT
Also: assay procedure not described here.

Row | AC50 [2] | AC50 [6] | AC50 [7] | Structure (SMILES) | AC50 [1] | AC50 [3] | AC50 [4] | AC50 [5] | AC50 [8] | AC50 [9]
1 | > 10 µM | > 30 µM | > 30 µM | C[C@H]1C[C@H]2[C@@H]3CCC4=CC(=O)C=C[C@]4(C)[C@@]3(Cl)[C@@H](O)C[C@]2(C)[C@@]1(O)C(=O)CO [BECLOMETHASONE] | > 30 µM | > 30 µM | > 10 µM | > 10 µM |  | 
2 |  |  |  | CO[C@@]1(NC(=O)CSCC#N)C(=O)N2C(C(=O)O)=C(CSc3nnnn3C)CS[C@@H]21 [CEFMETAZOLE] |  | > 30 µM |  | > 30 µM |  | > 30 µM
3 | > 30 µM | > 30 µM | > 30 µM | C[C@@H]1CCC[C@H](C)N1NC(=O)c1ccc(Cl)c(S(N)(=O)=O)c1 [CLOPAMIDE] | > 30 µM | > 30 µM | > 30 µM | > 30 µM | > 30 µM | > 30 µM
4 | > 30 µM | > 30 µM | > 30 µM | O=C(O)CSCC(=O)NC1CCSC1=O (stereo not drawn) [ERDOSTEINE] | > 30 µM | > 30 µM | > 30 µM | > 30 µM | > 30 µM | > 30 µM
5 | > 30 µM | > 30 µM | > 30 µM | COc1cccc(N(C)C(=S)Oc2ccc3c(c2)CCCC3)n1 [LIRANAFTATE] | > 30 µM | > 30 µM | > 30 µM | > 30 µM | > 30 µM | > 30 µM
6 | 3.5 µM | > 30 µM | > 30 µM | N=C(N)c1ccc2cc(OC(=O)c3ccc(N=C(N)N)cc3)ccc2c1 [NAFAMOSTAT] | 21 µM |  | 2.8 µM | 0.29 µM |  | > 30 µM
7 | > 30 µM | > 30 µM | 2.3 µM | O=C(O)c1cc(O)c2c3nc4ccccc4oc-3cc(=O)c2n1 [PIRENOXINE] | > 30 µM | 2.2 µM | > 30 µM | > 30 µM | > 30 µM | > 30 µM
8 |  |  |  | CCSc1ccc2c(c1)N(CCCN1CCN(C)CC1)c1ccccc1S2 [THIETHYLPERAZINE] | > 10 µM |  | 15 µM |  | > 30 µM | 

Row | Structure (SMILES) | AC50 [2] | AC50 [6] | AC50 [7] | AC50 [1] | AC50 [3] | AC50 [4] | AC50 [5] | AC50 [8] | AC50 [9]
9 | C[C@]1(COc2ccc(N3CCC(Oc4ccc(OC(F)(F)F)cc4)CC3)cc2)Cn2cc([N+](=O)[O-])nc2O1 | > 10 µM | > 30 µM | > 30 µM | > 30 µM | > 30 µM | > 10 µM | > 10 µM |  | 
10 | O=C(Nc1nc(-c2cc(Cl)cs2)c(N2CCN(C3CCCCC3)CC2)s1)c1cnc(N2CCC(C(=O)O)CC2)c(Cl)c1 [AVATROMBOPAG] | > 10 µM | > 10 µM | > 10 µM | > 10 µM | > 10 µM | > 10 µM | > 10 µM |  | 
11 | CN(C)C(=O)Oc1cc(OC(=O)N(C)C)cc(C(O)CNC(C)(C)C)c1 (stereo not drawn) [BAMBUTEROL] |  | > 30 µM |  | > 30 µM |  | > 30 µM |  | > 30 µM | 
12 | CO/N=C(\C(=O)N[C@@H]1C(=O)N2C(C(=O)[O-])=C(C[n+]3cccc4c3CCC4)CS[C@H]12)c1csc(N)n1 [CEFPIROME] | > 30 µM |  | > 30 µM |  | > 30 µM |  | > 30 µM |  | > 30 µM
13 | CC[C@H]1OC(=O)[C@H](C)[C@@H](O[C@H]2C[C@@](C)(OC)[C@@H](O)[C@H](C)O2)[C@H](C)[C@@H](O[C@@H]2O[C@H](C)C[C@H](N(C)C)[C@H]2O)[C@](C)(OC)C[C@@H](C)C(=O)[C@H](C)[C@@H](O)[C@]1(C)O [CLARITHROMYCIN] |  | > 30 µM |  | > 30 µM |  | > 30 µM |  | > 30 µM | > 30 µM
14 | Oc1c(I)cc(Cl)c2cccnc12 [CLIOQUINOL] | > 30 µM |  | > 10 µM |  | > 30 µM |  | 13 µM |  | > 30 µM
15 | CNC(=O)Oc1ccc2c(c1)[C@]1(C)CCN(C)[C@@H]1N2C [PHYSOSTIGMINE] | > 30 µM | > 30 µM | > 30 µM | > 30 µM | > 30 µM | > 30 µM | > 30 µM | > 30 µM | > 30 µM
